Data published in US20120296403A1, “METHODS AND COMPOUNDS FOR MUSCLE GROWTH” (NOVARTIS AG, priority 2010, published 2012).
Where a SMILES comes first, the peptide text is derived from it. The star is where a group is joined. Cbz = O=C(OCc1ccccc1)*

Columns and labels:
IRS1 [1] = assay: IRS1 degradation / protein stability in C2C12 myotubes (Western blotting); format: cell-based, mouse; conditions: for IRS1 degradation upon treatment: increasing concentration, along with protein synthesis inhibitor Emetin, dose-dependent
Method: Differentiated C2C12 myotubes are treated with increasing concentration of IGF1 or dexmethasome (DEX), a glucocorticoid that can lead to muscle atrophy, along with protein synthesis inhibitor Emetin (Eme). […] In C2C12 myotubes, IRS1 is rapidly degraded upon IGF1 treatment with a half-life of around 2 hours (FIGS. 4B and 4E).
Cells are washed twice with warm serum free DMEM and starved in serum free DMEM for 4 hours with an exchange of fresh medium in the middle. Then the signaling inhibitors are added to pretreat cells for 30 min before incubation with freshly prepared inhibitors with 10 nM IGF1 (the R3 form, Sigma, St. Louis, Mo.) or 10 μM Emetin (Sigma, St. Louis, Mo.) or 20 μM MG132 (Alexis Biochemicals, Carlsbad, Calif.) as specified for an additional 5 hours. Cells are rinsed two times with ice-cold PBS and harvested in ice-cold RIPA buffer with 10 μM MG132 and protease/phosphatase inhibitors tablets (Roche, Basel, Switzerland). Cell lysates are rotated at 4° C. for at least one hour, and spun for 10 min at 16,000×g in a micro centrifuge at 4° C. Protein concentrations of the supernatants are determined by BCA Protein Assay Kit (Pierce/Thermo Fisher Scientific, Rockford, Ill.). Equal amounts of proteins (10-20 μg) are loaded per lane on 4-12% Bis-Tris gels (Invitrogen, Carlsbad, Calif.) and transferred onto PVDF membranes (Millipore, Billerica, Mass.). Membranes are blocked in 10% (w/v) milk in TBST for 1 hour at room temperature, followed by incubation with primary antibody in TBST with 5% BSA at 4° C. for overnight. Secondary antibodies are incubated with membranes at room temperature for 1 hour. Immunoreactivity is detected by ECL and exposed to film or Kodak Image Station 4000R (Eastman Kodak Company, Rochester, N.Y.). Densitometry is analyzed using Kodak Molecular Imaging software, version 4.0.
Cells are washed twice with warm serum-free DMEM and starved in serum-free DMEM for 4 hours with an exchange of fresh medium in the middle. At time zero, 10 μM Emetin, or 100 μg/ml of cycloheximide, or 10 nM IGF1, or 20 μM MG132 are added to cells as specified. At the indicated time intervals, cells are rinsed twice with PBS and harvested in ice-cold RIPA buffer with 10 μM MG132 and protease/phosphatase inhibitors. Cell lysates are rotated at 4° C. for at least one hour, and spun for 10 min at 16,000×g in a micro centrifuge at 4° C. The supernatants are analyzed by western blotting.

Fbxo40 = Fbxo40 protein level after MG132 incubation (co-immunoprecipitation experiment, C2C12 myotubes); format: cell-based, mouse; conditions: 20 μM MG132
Text: Ye et al. 2007 Gene 404: 53-60. We survey the FirstChoice Human Total RNA Panel by quantitative real-time PCR and find that Fbxo40 is highly expressed in heart and muscle (FIG. 3). Furthermore, its mRNA (FIG. 6B) and protein (FIG. 8A) is induced during differentiation of C2C12 cells, which coincides with the accelerated degradation of IRS1 in C2C12 myotubes. IRS1 and Rbx1 can be co-immunoprecipitated with antibody against Fbxo40 (FIG. 6C). […] We also use this immunoprecipitated Fbxo40-Rbx1 complex to ubiquitinate recombinant IRS1 in-vitro and find that IRS1 can be ubiquitinated in a time-dependent manner (FIG. 6D). In this experiment, we include six control reactions. The first four controls are the reactions carried out at 30° C. for 90 min with the omission of E1, or E2 (UbCH5c), or His6-Biotin-N-terminal Ubiquitin, or recombinant IRS1 respectively. The last two controls are full reactions carried out without immunoprecipitated Fbxo40 (with beads incubated with lysate without IgG or with nonspecific rabbit IgG). Poly-ubiquitinated IRS1 can be observed in full reactions after 60 min or 90 min at 30° C.
Alternatively, in the experiment of IRS1 and Rbx1 Co-Immunoprecipitation with Fbxo40, day 3 C2C12 myotubes are starved and treated with 10 nM IGF1 or 20 μM MG132 as described above. […]

IRS1 [2] = assay: In-vivo ubiquitination assay and immunoprecipitation of IRS1 in C2C12 myotubes; format: cell-based, mouse; conditions: C2C12 myotubes overexpressing his-myc tagged ubiquitin, 10 nM IGF1
Method: Since ubiquitinated proteins are rapidly degraded in cells, in order to detect ubiquitinated IRS1 protein in the experiment shown in FIG. 4C, C2C12 myotubes are infected with an adenovirus overexpressing his-myc tagged ubiquitin and incubated with IGF1 along with MG132 or an isopeptidase inhibitor G5. IRS1 is immunoprecipitated with the rabbit polyclonal anti-IRS1 antibody (lanes 6, 8, 10, 12) or non-specific IgG (lanes 5, 7, 9, 11) as control. Poly-ubiquitination is detected with monoclonal anti-myc antibody against the his-myc tagged ubiquitin and is found to be specifically immunoprecipitated with IRS1 (FIG. 4C, upper panel). […] Note that in the upper panel of FIG. 4C, G5 treatment also causes an upper shift of his-myc tagged ubiquitin in comparison to MG132 treatment alone (compare lane 10 to lane 8). In agreement with the induced degradation of IRS1 upon IGF1 treatment, poly-ubiquitinated IRS1 also increases with IGF1 treatment (FIG. 4D, upper panel) despite that the total amount of ubiquitinated proteins in cells even decreased a little (FIG. 4D, lower panel).
A His-myc-ubiquitin adenoviral expression constructs are sent to Welgen Inc. (Worcester, Mass.) for production and purification. […] Protein concentration in the supernatant is determined by BCA analysis. […] An aliquot (20 μg) of the lysate is analyzed by Western blotting along with 100% of the eluate.

[3] = biological target: purified recombinant IRS1 protein (Millipore)
purified recombinant IRS1 protein (Millipore), sequence (P35568 whole entry): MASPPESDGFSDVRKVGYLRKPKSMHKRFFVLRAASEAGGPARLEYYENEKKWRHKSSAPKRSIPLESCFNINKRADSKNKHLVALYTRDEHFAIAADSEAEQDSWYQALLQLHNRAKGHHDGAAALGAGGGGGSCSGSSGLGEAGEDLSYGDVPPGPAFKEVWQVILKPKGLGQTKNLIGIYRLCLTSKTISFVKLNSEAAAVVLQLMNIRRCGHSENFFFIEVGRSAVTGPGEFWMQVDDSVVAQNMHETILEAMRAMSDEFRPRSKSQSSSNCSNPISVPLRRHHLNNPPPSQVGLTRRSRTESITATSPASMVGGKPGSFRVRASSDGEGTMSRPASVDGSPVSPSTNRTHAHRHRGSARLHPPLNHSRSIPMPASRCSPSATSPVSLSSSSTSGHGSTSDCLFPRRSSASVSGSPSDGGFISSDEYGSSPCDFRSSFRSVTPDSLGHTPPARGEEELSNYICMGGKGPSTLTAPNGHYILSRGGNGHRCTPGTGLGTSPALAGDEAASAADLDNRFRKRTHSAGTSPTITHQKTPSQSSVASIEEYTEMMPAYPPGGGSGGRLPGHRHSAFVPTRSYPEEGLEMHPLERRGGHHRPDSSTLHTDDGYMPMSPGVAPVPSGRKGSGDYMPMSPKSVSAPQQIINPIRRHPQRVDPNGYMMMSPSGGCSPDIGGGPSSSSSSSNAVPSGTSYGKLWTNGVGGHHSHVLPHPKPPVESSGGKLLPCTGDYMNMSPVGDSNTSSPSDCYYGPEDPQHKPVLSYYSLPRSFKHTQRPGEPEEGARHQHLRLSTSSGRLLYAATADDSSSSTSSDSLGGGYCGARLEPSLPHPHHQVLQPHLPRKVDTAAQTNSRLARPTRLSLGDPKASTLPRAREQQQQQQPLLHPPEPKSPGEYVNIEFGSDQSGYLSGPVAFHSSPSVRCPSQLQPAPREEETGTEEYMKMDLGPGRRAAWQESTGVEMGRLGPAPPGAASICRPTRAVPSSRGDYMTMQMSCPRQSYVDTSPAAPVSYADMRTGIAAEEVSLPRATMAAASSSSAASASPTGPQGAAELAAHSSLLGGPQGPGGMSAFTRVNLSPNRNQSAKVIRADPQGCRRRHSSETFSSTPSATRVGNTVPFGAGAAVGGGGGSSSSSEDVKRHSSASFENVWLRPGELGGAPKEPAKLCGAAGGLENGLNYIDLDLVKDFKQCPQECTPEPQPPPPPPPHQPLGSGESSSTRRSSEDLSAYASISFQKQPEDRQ

In the case of CC(C)C[C@@H](C=O)NC(=O)[C@H](CC(C)C)NC(=O)[C@H](CC(C)C)NC(=O)OCc1ccccc1 [MG132, reference compound] (Cbz-Leu-Leu-Leu-aldehyde), the “stabilization of IRS1 protein” value (IRS1 [1]; IGF1 treatment, 20 μM MG132) is reported as “substantially stabilizes” and the “Fbxo40 protein level after incubation with MG132” value (Fbxo40) is reported as “increases”.

With C[C@@H]1C[C@H]2[C@@H]3CCC4=CC(=O)C=C[C@]4(C)[C@@]3(F)[C@@H](O)C[C@]2(C)[C@@]1(O)C(=O)CO [DEX, dexmethasome, reference compound] the “IRS1 degradation upon treatment” value (IRS1 [1]) was “not”.

With insulin-like growth factor-1 (IGF1) the “half-life of IRS1 upon IGF1 treatment” value (IRS1 [1]; 10 nM IGF1) was “around 2 hours”, the “protein level of IRS1 in cells treated with IGF1 alone” value (IRS1 [1]; IGF1 alone (no Emetin), slower kinetics) was “decreases” and the “IRS1 degradation upon treatment” value (IRS1 [1]) was “IRS1 is degraded”. The “poly-ubiquitinated IRS1” value (IRS1 [2]) was “increases”.

B1: Fbxo40, endogenous in C2C12 myotubes (protein)
chain: MGRARKPPPALHRHCEGCFNRHCHVPVEPSVSCLVISCHLLCGATFHMCKESEHTLLCPLEQVPCLNSEYGCPLSMARHKLAKHLQVCPASVVCCSMEWIRWPNVDSETFLHENIMKETPSEECLDTALALQDQKVLFRSLKMVELFPETRDATEEEPDMNGDTSWEETGGAVGGVDARLAPNSCLPATSRQMMELSQEERDALAKTKEGMDLDKFGKWESMFSKEHAASVLTGSLGKSEDKNGDVAGKEQCSSNVRIGDAEGSAERRGPQESQKSQELPATMEMTGLAPWQDGVLERLKTAVDAKDYNMYLVHNGRMLIHFGQMPACTPKERDFVYGNLEAQEVKTVYTFKIPVSYCGKRARLGDAMLKCRPSEHKAVDTSDLGISVEDLPKSDLIKTTLQCALERELKGHVISESRSIDGLFMDLATQTYNFEPEQFSSETVLADLLGTAQPGGLHVELHSECVTRRHNKSSSAFTFTCNKFFRRDEFPLHFKNVHTDIQSSLDGWFQHRCPLAYLGCTFVQNHFRPPGQKAKVIYSQELKTFAIKPEVAPELSEKWKSDHLSGRDGKSLNSLTSLPLEVLQYIAGFLDSISLSQLSQVSVLMRNICATLLQERGMVLSQWKKKRYSHGGTSWKVHNQIWQFSSLFSKINSWEFNDVTSMSEHLKTCPFNIVERKTDPIRLTSMCQPQEKARESLVSTFRARPRGRHF
B1 was tested, and the “in-vitro ubiquitination of recombinant IRS1 (streptavidin-HRP blot of His6-Biotin-ubiquitin)” value [3] was “IRS1 can be ubiquitinated in a time-dependent manner”.
